Patent US7655683B2, “Imidazolopyrazole derivatives useful as selective androgen receptor modulators” (Janssen Pharmaceutica NV, priority 2006, dated 2010)
Read-outs that look alike come from different tables or passages of the source.

Key:
[1] = test system: ventral prostate and levator ani of immature castrated male Sprague Dawley rats; experiment: Ventral Prostate and Levator ani Weight in vivo Assay (agonist activity); set-up: key to % Prostate Stimulation / % levator ani Stimulation: level 1 agonist active if it produced greater than or equal to 30% stimulation of levator ani or ventral prostate at 30 mg/kg; level 2 agonist active if it produced greater than or equal to 5% but less than 30% stimulation of levator ani or ventral prostate at 30 mg/kg; listed herein as “inactive” as they did not meet the specified criteria defined above; settings: once daily for five days, oral, vehicle = 0%, testosterone propionate = 100%, criteria at 30 mg/kg; for change in vivo at 30 mg/kg: Rattus norvegicus, 120 h
Description: Immature (approximately 50 g) castrated male Sprague Dawley rats (Charles River) were treated once daily for five days with test compound ([…], in 30% cyclodextrin or 0.5% methylcellulose vehicle), or with testosterone propionate (administered subcutaneously by injection at the nape of the neck at 5 mg/kg, in a volume of 0.1 mL in sesame oil), or with vehicle (1 mL of 30% cyclodextrin or 0.5% methylcellulose, given orally). On the sixth day, the rats were euthanized by asphyxiation in carbon dioxide. Ventral prostates and levator ani. muscle were removed and their wet weights determined.
Test compound activity was determined as the percent stimulation of tissue weight, with the vehicle-treated control group set to zero percent and the testosterone alone-treated control group set to 100%.

[2] = test system: ventral prostate and seminal vesicle of immature castrated male Sprague Dawley rats; experiment: Ventral Prostate and Seminal Vesicle Weight in vivo Assay (antagonist activity, with testosterone propionate); set-up: key to Inhibition of prostate (non-weight prostate weight, mg) / Inhibition of seminal vesicle (non-weight seminal vesicle weight, mg): level 1 agonist active if it produced greater than or equal to 30% stimulation of levator ani or ventral prostate at 30 mg/kg; level 2 agonist active if it produced greater than or equal to 5% but less than 30% stimulation of levator ani or ventral prostate at 30 mg/kg; listed herein as “inactive” as they did not meet the specified criteria defined above; settings: test compound oral plus testosterone propionate 2 mg/kg s.c., five days, criteria at 30 mg/kg; for inhibition in vivo at 30 mg/kg: Rattus norvegicus, 120 h
Description: Immature (approximately 50 g) castrated male Sprague Dawley rats (Charles River) were treated once daily for five days with test compound ([…], in 30% cyclodextrin or 0.5% methylcellulose vehicle) and with testosterone propionate (given subcutaneously by injection at the nape of the neck at 2 mg/kg, in a volume of 0.1 mL in sesame oil). On the sixth day, the rats were euthanized by asphyxiation in carbon dioxide. Ventral prosatates and seminal vesicles were removed and their wet weights determined. Test compound activity was determined as the percent inhibition of testosterone-enhanced tissue weights, with a vehicle-treated control group set to zero percent and a testosterone alone-treated control group set to 100%.

[3] = levator ani wet weight, read-out: % levator ani Stimulation
[4] = ventral prostate wet weight, read-out: % Prostate Stimulation
[5] = seminal vesicle wet weight, read-out: Inhibition of seminal vesicle (non-weight seminal vesicle weight, mg)
[6] = levator ani wet weight, 30 mg/kg
[7] = ventral prostate wet weight, 30 mg/kg
[8] = ventral prostate wet weight, read-out: Inhibition of prostate (non-weight prostate weight, mg)

Row | Compound | change in vivo at 30 mg/kg [1, 3] [%] | change in vivo at 30 mg/kg [1, 4] [%] | inhibition in vivo at 30 mg/kg [2, 5] [%] | Inhibition of prostate (non-weight prostate weight, mg) ([2]; ventral prostate wet weight) | % levator ani Stimulation [1, 6] | % Prostate Stimulation [1, 7] | Inhibition of seminal vesicle (non-weight seminal vesicle weight, mg) ([2]; seminal vesicle wet weight) | inhibition in vivo at 30 mg/kg [2, 8] [%] | % levator ani Stimulation ([1]; levator ani wet weight) | % Prostate Stimulation ([1]; ventral prostate wet weight)
1 | CCC12CC(C(F)(F)F)=NN1C(N)=N/C2=N\c1ccc(C#N)c(C(F)(F)F)c1 (centres unmarked) [Compound 8, 4-(6-Amino-3a-ethyl-2-trifluoromethyl-3,3a-dihydro-imidazo[1,5-b]pyrazol-4-ylideneamino)-2-trifluoromethyl-benzonitrile] | 5 to 30 | 5 to 30 | 5 to 30 | inactive | – | – | – | – | – | –
2 | C[C@@]12CC(C(F)(F)F)=NN1C(N)=NC2=Nc1ccc(C#N)c(C(F)(F)F)c1.O [Compound 19, 4-(6-Amino-3aS-methyl-2-trifluoromethyl-3,3a-dihydro-imidazo[1,5-b]pyrazol-4-ylideneamino)-2-trifluoromethyl-benzonitrile-Hydrates] | – | – | – | level 1 (level 1 antagonist active if it produced greater than or equal to 30% inhibition of ventral prostate or seminal vesicle at 30 mg/kg) | level 1 (level 1 agonist active if it produced greater than or equal to 30% stimulation of levator ani or ventral prostate at 30 mg/kg) | level 1 (level 1 agonist active if it produced greater than or equal to 30% stimulation of levator ani or ventral prostate at 30 mg/kg) | level 1 (level 1 antagonist active if it produced greater than or equal to 30% inhibition of ventral prostate or seminal vesicle at 30 mg/kg) | – | – | –
3 | CC12CC(C(F)(F)F)=NN1C(=N)O/C2=N\c1ccc(C#N)c(C(F)(F)F)c1 (centres unmarked) [Compound 15, 4-(6-Imino-3a-methyl-2-trifluoromethyl-3,3a-dihydro-pyrazolo[1,5-c]oxazol-4-ylideneamino)-2-trifluoromethyl-benzonitrile] | ≥ 30 | 5 to 30 | 5 to 30 | – | – | – | – | 5 to 30 | – | –
4 | CC12CC(C(F)(F)F)=NN1C(N)=N/C2=N\c1ccc(Br)c(C(F)(F)F)c1 (centres unmarked) [Compound 10, 4-(4-Bromo-3-trifluoromethyl-phenylimino)-3a-methyl-2-trifluoromethyl-3a,4-dihydro-3H-imidazo[1,5-b]pyrazol-6-ylamine] | – | – | 5 to 30 | – | – | – | – | 5 to 30 | inactive | inactive
5 | C[C@]12CC(C(F)(F)F)=NN1C(NC(=O)C(F)(F)F)=N/C2=N\c1ccc(C#N)c(C(F)(F)F)c1 [Compound 13, N-[4-(4-Cyano-3-trifluoromethyl-phenylimino)-3aR-methyl-2-trifluoromethyl-3a,4-dihydro-3H-imidazo[1,5-b]pyrazol-6-yl]-2,2,2-trifluoro-acetamide] | ≥ 30 | ≥ 30 | 5 to 30 | – | – | – | – | ≥ 30 | – | –
6 | C[C@]12CC(C(F)(F)F)=NN1C(N)=NC2=Nc1ccc(C#N)c(C(F)(F)F)c1.O [Compound 20, 4-(6-Amino-3aR-methyl-2-trifluoromethyl-3,3a-dihydro-imidazo[1,5-b]pyrazol-4-ylideneamino)-2-trifluoromethyl-benzonitrile-Hydrates] | – | – | – | level 2 (level 2 antagonist active if it produced greater than or equal to 5% but less than 30% inhibition of ventral prostate or seminal vesicle at 30 mg/kg) | level 2 (level 2 agonist active if it produced greater than or equal to 5% but less than 30% stimulation of levator ani or ventral prostate at 30 mg/kg) | level 2 (level 2 agonist active if it produced greater than or equal to 5% but less than 30% stimulation of levator ani or ventral prostate at 30 mg/kg) | level 1 (level 1 antagonist active if it produced greater than or equal to 30% inhibition of ventral prostate or seminal vesicle at 30 mg/kg) | – | – | –
7 | CC12CC(C(F)(F)F)=NN1C(N)=N/C2=N\c1ccc(C#N)c(C(F)(F)F)c1 (centres unmarked) [Compound 1, 4-(6-Amino-3a-methyl-2-trifluoromethyl-3,3a-dihydro-imidazo[1,5-b]pyrazol-4-ylideneamino)-2-trifluoromethyl-benzonitrile] | ≥ 30 | ≥ 30 | ≥ 30 | – | – | – | – | 5 to 30 | – | –
8 | C[C@]12CC(C(F)(F)F)=NN1C(NC(=O)Nc1ccc(I)cc1)=N/C2=N\c1ccc(C#N)c(C(F)(F)F)c1 [Compound 14, 1-[4-(4-Cyano-3-trifluoromethyl-phenylimino)-3aR-methyl-2-trifluoromethyl-3a,4-dihydro-3H-imidazo[1,5-b]pyrazol-6-yl]-3-(4-iodo-phenyl)-urea] | ≥ 30 | 5 to 30 | – | – | – | – | inactive | 5 to 30 | – | –
9 | CC12CC(C(F)(F)F)=NN1C(N)=N/C2=N\c1ccc([N+](=O)[O-])c(C(F)(F)F)c1 (centres unmarked) [Compound 5, 3a-Methyl-4-(4-nitro-3-trifluoromethyl-phenylimino)-2-trifluoromethyl-3a,4-dihydro-3H-imidazo[1,5-b]pyrazol-6-ylamine] | – | – | ≥ 30 | inactive | – | – | – | – | inactive | inactive
10 | C[C@]12CC(C(F)(F)F)=NN1C(N)=NC2=Nc1ccc(C#N)c(C(F)(F)F)c1.O [Compound 16, 4-(6-Amino-3aR-methyl-2-trifluoromethyl-3,3a-dihydro-imidazo[1,5-b]pyrazol-4-ylideneamino)-2-trifluoromethyl-benzonitrile-Hydrates] | – | – | – | level 2 (level 2 antagonist active if it produced greater than or equal to 5% but less than 30% inhibition of ventral prostate or seminal vesicle at 30 mg/kg) | level 1 (level 1 agonist active if it produced greater than or equal to 30% stimulation of levator ani or ventral prostate at 30 mg/kg) | level 1 (level 1 agonist active if it produced greater than or equal to 30% stimulation of levator ani or ventral prostate at 30 mg/kg) | level 2 (level 2 antagonist active if it produced greater than or equal to 5% but less than 30% inhibition of ventral prostate or seminal vesicle at 30 mg/kg) | – | – | –
11 | C[C@@]12CC(C(F)(F)F)=NN1C(N)=N/C2=N\c1ccc(C#N)c(C(F)(F)F)c1 [Compound 3, 4-(6-Amino-3aS-methyl-2-trifluoromethyl-3,3a-dihydro-imidazo[1,5-b]pyrazol-4-ylideneamino)-2-trifluoromethyl-benzonitrile] | ≥ 30 | 5 to 30 | 5 to 30 | – | – | – | – | ≥ 30 | – | –
12 | CCOC(=O)C1=NN2C(N)=N/C(=N\c3ccc(C#N)c(C(F)(F)F)c3)C2(C)C1 (centres unmarked) [Compound 7, 6-Amino-4-(4-cyano-3-trifluoromethyl-phenylimino)-3a-methyl-3a,4-dihydro-3H-imidazo[1,5-b]pyrazole-2-carboxylic acid ethyl ester] | 5 to 30 | 5 to 30 | 5 to 30 | inactive | – | – | – | – | – | –
13 | CC12CC(c3c(F)c(F)c(F)c(F)c3F)=NN1C(N)=N/C2=N\c1ccc(C#N)c(C(F)(F)F)c1 (centres unmarked) [Compound 11, 4-(6-Amino-3a-methyl-2-pentafluorophenyl-3,3a-dihydro-imidazo[1,5-b]pyrazol-4-ylideneamino)-2-trifluoromethyl-benzonitrile] | 5 to 30 | 5 to 30 | – | – | – | – | – | – | – | –
